This passage reports TGI and GI50 results from PubChem BioAssay (NCI).

“And” between values parts separate entries of the source, which are not always exact repeats. Equal values may be shown once.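 Assay format: 96-well plates, 48-hour exposure. GI50: concentration for 50% inhibition of growth. TGI: total growth inhibition.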 Where a SMILES comes first, the peptide text is derived from it. [ ]: non-standard residue; d: D form. The star is where a group is joined. ξ: configuration not given here. X6 = FC(F)(F)c1cc(NC(=S)*)cc(C(F)(F)F)c1; ξF = NC(Cc1ccccc1)C(=O)O Where only a bound is given, the exact number is not on record here.

One test concerns OVCAR-3 ovarian. Description: NCI anticancer screen, dose series, 48 h.
On to `CC(C)C/C(CC(=O)CCC(=O)Nc1ccccc1[N+](=O)[O-])=N\NC(=O)c1cc2ccccc2cc1O`, for which the TGI was found to be 99.3 µM.
Consider `COc1ccc(-c2nc3sccn3c2/C(N)=N/C(=N)N)cc1OC`, for which the GI50 was 31.8 µM and the TGI was over 100 µM.
In the case of `CC1=C(C(=O)Nc2ccc(Cl)c(Cl)c2)C(c2cccc(Oc3ccccc3)c2)NC(=S)N1` (configuration not stated), the GI50 was 1.87 µM and the TGI came to 8.15 µM.
In turn, `Nc1ccccc1SC(C[N+](=O)[O-])c1ccc2c(c1)OCO2` (configuration not stated) returned a TGI of 12.4 µM.
Turning to `O=C(/C=C/c1ccccc1)NC1C=Nc2ccc(Cl)cc2NC1=O` (configuration not stated), the TGI was 56.4 µM.
In the case of `COC(=O)[C@@H](NC(=O)CNC(=O)[C@H]1CCCN1C(=O)C(Cc1ccccc1)NC(=S)Nc1cc(C(F)(F)F)cc(C(F)(F)F)c1)C(C)C` (some centres not stated) (X6-[ξF][dP]GV-OMe), the GI50 is 2.96 µM and the TGI is 8.48 µM.
Regarding `COc1cc(Cc2cnc(/N=C3\C(=O)N(CN4CCN(c5c(F)cc6c(=O)c(C(=O)O)cn(C7CC7)c6c5OC)CC4C)c4ccc(F)cc43)nc2N)cc(OC)c1OC` (configuration not stated), the GI50 was 5.87 µM and the TGI worked out at 22.1 µM.
Take `COC1CCC2C(NS(=O)(=O)c3ccc(C)cc3)CCCC2O1` (configuration not stated) (tested in a mixture with another compound): the TGI is over 34.5 µM.
For `CN(C)C(=N)c1ccccc1`, the TGI is over 100 µM.
Take `NNC(=O)Nc1cccnc1`: the TGI was over 100 µM.
The same measure, in the same setting: with `CC1=C(C(=O)NCc2ccccc2)C(/C=C/c2ccccc2)C(C(=O)NCc2ccccc2)=C(C)N1` the figure was over 100 µM; with `C=C1C(=O)C23CC1CCC2C12CO[C@@H]4OCC(C)(CC[C@@H]1OC3=O)C42` (some centres not stated), 16.6 µM.

Another test relates to SF-268 CNS. The test can be described thus: NCI anticancer screen, dose series, 48 h.
In turn, `CCOC(=O)[C@]1(OC(C)=O)C[C@H](OC(C)=O)[C@@H](C(F)COP(=O)(OCc2ccccc2)OCc2ccccc2)O1` (some centres not stated) had a TGI of over 100 µM.
Molecule `O=C(O)c1ccccc1[Se][Se]c1ccccc1C(=O)O` showed a TGI of over 100 µM.
With `CC[C@@]1(O)C[C@H](OC2CC(N(C)C)C(O)C(C)O2)c2c(O)c3c(c(O)c2[C@H]1OC1CC(N(C)C)C(O)C(C)O1)C(=O)c1cccc(O)c1C3=O` (some centres not stated), the GI50 was under 0.01 µM.
For `CC(C)=CC(=O)C1c2cccc(O)c2C(=O)c2c(O)cc(C)cc21` (configuration not stated), the TGI is 5.3 µM.
As for `O=C(Nc1ccccc1)NS(=O)(=O)c1ccc(-n2nc3c(c2-c2cccs2)Cc2ccccc2-3)cc1`, the GI50 was 26 µM and the TGI is over 100 µM.
With `CCCCCN(CCCCC)CC(O)c1cc(C)c2ccc3cc(C(C)C)ccc3c2c1` (configuration not stated), the GI50 was 2.14 µM and the TGI is 4.26 µM.
On to `CC(C)CCC[C@@H](C)[C@H]1CC[C@H]2[C@@H]3CC=C4C[C@@H](C(C(=O)O)C(=O)O)CC[C@]4(C)[C@H]3CC[C@]12C`, for which the GI50 is 0.157 µM and the TGI is 1.65 µM.
In turn, `CC(C)C/C(CC(=O)CCC(=O)Nc1ccccc1[N+](=O)[O-])=N\NC(=O)c1cc2ccccc2cc1O` showed a TGI of over 100 µM.
Take `COc1ccc(-c2nc3sccn3c2/C(N)=N/C(=N)N)cc1OC`: the GI50 was 50.3 µM and the TGI is over 100 µM.
With `CC1=C(C(=O)Nc2ccc(Cl)c(Cl)c2)C(c2cccc(Oc3ccccc3)c2)NC(=S)N1` (configuration not stated), the GI50 was 6.1 µM and the TGI came to 12.9 µM.
The molecule `Nc1ccccc1SC(C[N+](=O)[O-])c1ccc2c(c1)OCO2` (configuration not stated) returned a TGI of 20.7 µM.
The same measure, in the same setting: with `O=C(/C=C/c1ccccc1)NC1C=Nc2ccc(Cl)cc2NC1=O` (configuration not stated) the figure was over 100 µM.
For `COC(=O)[C@@H](NC(=O)CNC(=O)[C@H]1CCCN1C(=O)C(Cc1ccccc1)NC(=S)Nc1cc(C(F)(F)F)cc(C(F)(F)F)c1)C(C)C` (some centres not stated) (X6-[ξF][dP]GV-OMe), the GI50 is 2.98 µM and the TGI stood at 10.7 µM.
Turning to `COc1cc(Cc2cnc(/N=C3\C(=O)N(CN4CCN(c5c(F)cc6c(=O)c(C(=O)O)cn(C7CC7)c6c5OC)CC4C)c4ccc(F)cc43)nc2N)cc(OC)c1OC` (configuration not stated), the GI50 was 18.2 µM and the TGI was 57.7 µM.
Molecule `COC1CCC2C(NS(=O)(=O)c3ccc(C)cc3)CCCC2O1` (configuration not stated) (tested in a mixture with another compound) came in with a TGI of over 34.5 µM.
In turn, `CC1=C(C(=O)NCc2ccccc2)C(/C=C/c2ccccc2)C(C(=O)NCc2ccccc2)=C(C)N1` registered a TGI of over 100 µM.
Molecule `C=C1C(=O)C23CC1CCC2C12CO[C@@H]4OCC(C)(CC[C@@H]1OC3=O)C42` (some centres not stated) showed a TGI of 12.7 µM.

For another test, the system named is COLO 205 colon. The test can be described thus: NCI anticancer screen, dose series, 48 h.
In the case of `CCOC(=O)[C@]1(OC(C)=O)C[C@H](OC(C)=O)[C@@H](C(F)COP(=O)(OCc2ccccc2)OCc2ccccc2)O1` (some centres not stated), the GI50 was 19.4 µM and > 100 µM; the TGI was 36.3 µM and > 100 µM.
Regarding `O=C(O)c1ccccc1[Se][Se]c1ccccc1C(=O)O`, the TGI is over 100 µM.
Regarding `CC[C@@]1(O)C[C@H](OC2CC(N(C)C)C(O)C(C)O2)c2c(O)c3c(c(O)c2[C@H]1OC1CC(N(C)C)C(O)C(C)O1)C(=O)c1cccc(O)c1C3=O` (some centres not stated), the GI50 is under 0.01 µM; the TGI is 0.149 µM and 0.0297 µM.
As for `CC(C)=CC(=O)C1c2cccc(O)c2C(=O)c2c(O)cc(C)cc21` (configuration not stated), the TGI was found to be 3.4 µM.
Same read-out and setting: with `O=C(O)CCc1coc2ccc(O)cc12` the figure was over 100 µM.
As to `O=C(Nc1ccccc1)NS(=O)(=O)c1ccc(-n2nc3c(c2-c2cccs2)Cc2ccccc2-3)cc1`, the GI50 was 44 µM and the TGI is over 100 µM.
As to `CCCCCN(CCCCC)CC(O)c1cc(C)c2ccc3cc(C(C)C)ccc3c2c1` (configuration not stated), the GI50 is 2.08 µM and the TGI came out at 4.22 µM.
Regarding `CC(C)CCC[C@@H](C)[C@H]1CC[C@H]2[C@@H]3CC=C4C[C@@H](C(C(=O)O)C(=O)O)CC[C@]4(C)[C@H]3CC[C@]12C`, the GI50 is 0.111 µM and the TGI is 0.247 µM.
Molecule `CC(C)C/C(CC(=O)CCC(=O)Nc1ccccc1[N+](=O)[O-])=N\NC(=O)c1cc2ccccc2cc1O` came in with a TGI of 69 µM.
For the molecule `COc1ccc(-c2nc3sccn3c2/C(N)=N/C(=N)N)cc1OC`, the GI50 was 56.6 µM and the TGI was over 100 µM.
In the case of `CC1=C(C(=O)Nc2ccc(Cl)c(Cl)c2)C(c2cccc(Oc3ccccc3)c2)NC(=S)N1` (configuration not stated), the GI50 is 9.38 µM and the TGI worked out at 21.1 µM.
Regarding `Nc1ccccc1SC(C[N+](=O)[O-])c1ccc2c(c1)OCO2` (configuration not stated), the TGI worked out at 13.7 µM.
Consider `O=C(/C=C/c1ccccc1)NC1C=Nc2ccc(Cl)cc2NC1=O` (configuration not stated), for which the TGI is 33.9 µM.
`COC(=O)[C@@H](NC(=O)CNC(=O)[C@H]1CCCN1C(=O)C(Cc1ccccc1)NC(=S)Nc1cc(C(F)(F)F)cc(C(F)(F)F)c1)C(C)C` (some centres not stated) (X6-[ξF][dP]GV-OMe): the GI50 is 1.87 µM and the TGI was determined as 3.32 µM.
As for `COc1cc(Cc2cnc(/N=C3\C(=O)N(CN4CCN(c5c(F)cc6c(=O)c(C(=O)O)cn(C7CC7)c6c5OC)CC4C)c4ccc(F)cc43)nc2N)cc(OC)c1OC` (configuration not stated), the GI50 was 15 µM and the TGI was found to be 58.8 µM.
The molecule `CN(C)C(=N)c1ccccc1` yielded a TGI of over 100 µM.
On the same count and under the same terms, to `NNC(=O)Nc1cccnc1` belongs over 100 µM; to `C=C1C(=O)C23CC1CCC2C12CO[C@@H]4OCC(C)(CC[C@@H]1OC3=O)C42` (some centres not stated), 4.34 µM.
